In article PMC10804683, “Identification of the pyridoxal 5′‐phosphate allosteric site in human pyridox(am)ine 5′‐phosphate oxidase” (Protein Science : A Publication of the Protein Society, 2024):

Target: T1, human PNPO F48A/E50L/R258L variant (holo-enzyme) (Homo sapiens, UniProt Q9NVS9, E50L/F48A/R258L)
T1 construct: a main form corresponding to the entire protein; made in house; host or cells: E. coli BL21(DE3)
T1 sequence (Q9NVS9 1-261 F48A/E50L/R258L): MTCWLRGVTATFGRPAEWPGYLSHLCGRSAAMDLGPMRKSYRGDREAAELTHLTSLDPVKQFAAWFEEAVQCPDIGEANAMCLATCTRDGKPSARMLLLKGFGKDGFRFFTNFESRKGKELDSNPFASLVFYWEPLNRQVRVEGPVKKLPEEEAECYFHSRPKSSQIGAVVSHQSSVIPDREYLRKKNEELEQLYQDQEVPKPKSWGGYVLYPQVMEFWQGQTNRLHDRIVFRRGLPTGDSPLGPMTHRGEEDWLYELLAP
Assay: PLP binding by FMN fluorescence changes, holo triple variant
Settings: 100 nM enzyme, read-out: PLP binding KD^FLUO
From the text: PLP binding to PNPO can be detected and quantitatively measured using differential scanning fluorimetry (DSF) and also by measuring FMN fluorescence changes. We had previously attributed DSF changes to PLP binding at the active site, while FMN fluorescence changes were attributed to PLP binding at the allosteric site (Barile et al., [2019], [2020]). Previous experiments carried out with the PNPO R161C variant, affecting a residue that is essential for substrate binding and catalysis (and therefore also for PLP binding at the active site), confirms that DSF measurements only report PLP binding at the active site (Barile et al., [2021]; Table 1). […] We expected to observe no FMN fluorescence changes upon titration of the variants with PLP. However, this was not the case, and the dissociation constant values obtained by observing the FMN fluorescence emission were only up to threefold larger in the variants with respect to wild type PNPO (Figure 3). […] To check the second possibility, we measured intrinsic fluorescence changes of wild type and variant apo‐forms (i.e., without FMN) upon PLP titration. […]
Analyses of PLP binding, based on FMN fluorescence increase observed upon binding of PLP to PNPO, were performed as described in Barile et al. ([2020]). […] Emission spectra were recorded from […], with excitation and emission slits set at 3 and 5 nm, respectively. […]

Kd: 1380 ± 80 nM
SMILES: Cc1ncc(COP(=O)(O)O)c(C=O)c1O [PLP, pyridoxal 5′‐phosphate]
